# Reference: patent US8680052B1, “Methods of treating, reducing the incidence of, and/or preventing ischemic events” (The Medicines Company, priority 2013, dated 2014)
# Assays:
# Type in all cases: in vivo, human
# [1] = test system: vasodilator-stimulated phosphoprotein (VASP); test: Example 4: vasodilator-stimulated phosphoprotein (VASP) index
# Procedure: (§1) The study involved 12 patients who met the criteria of being 18-75 years of age, having coronary artery disease (CAD) documented by a previous MI or coronary revascularization, and taking 81 mg of aspirin daily. […] Prohibited concomitant medications included strong and potent CYP3A inhibitors, simvastatin and lovastatin at doses more than 40 mg/day, omeprazole or esomeprazole, and digoxin. Use of non-steroidal anti-inflammatory agents was discouraged during study participation but not prohibited.
# (§2) Each patient was administered a 30 μg/kg bolus of cangrelor followed immediately by a 2 hr infusion at a rate of 4.0 μg/kg/min. A loading dose of ticagrelor (180 mg) was given after 0.5 hr or 1.25 hr (n=6 for each). Blood for pharmacodynamic platelet function studies was taken after 0.5 or 1.25 hr (corresponding to the time of ticagrelor load, n=6 for each), and then at 1.75, 2, 2.25, 2.5, 2.75, 3, 4, and 5.25 hr. Patients were assigned randomly to receive either 6 (n=6) or 7 (n=6) doses of ticagrelor to be taken every 12 hours following the discontinuation of the infusion of cangrelor. On study day 5, each patient was administered a 30 μg/kg bolus of cangrelor followed immediately by a 2 hr infusion at a rate of 4.0 μg/kg/min. Blood for pharmacodynamic assessment was taken after 1 and 2 hr. Adverse events were queried throughout study participation that ended with a telephone interview performed on study day 10-12.
# (§3) Pharmacodynamic assessment included light transmission aggregometry (LTA), VerifyNow® P2Y12 assay, vasodilator-stimulated phosphoprotein (VASP) index, and platelet activation measured with the use of flow cytometry. Assessment of LTA, VerifyNow®, and platelet activation with the use of flow cytometry was performed within 30 min of blood being taken. In the case of flow cytometry, samples were processed to fixation and then batched for analysis. For VASP, index samples were batched and processed as recommended by the vendor within 2 h of blood being taken. This approach limited the time from fixation of VASP index to flow analysis to less than 1 h.
# (§4) LTA induced by 5 μM and 20 μM adenosine diphosphate (ADP) was quantified ex vivo (i.e. in non-adjusted platelet rich plasma). Platelet-poor plasma was set as 100% aggregation, and both maximal (peak) and terminal (at 300 s) aggregation were measured with a PAP4 aggregometer (BioData, Horsham, Pa.). VerifyNow® P2Y12 assay (Accumetrics Inc, San Diego, Calif.) that measures the effects of drugs on the P2Y12 receptor by activating platelets with prostaglandin El in addition to ADP was used in accordance with the instructions provided by the manufacturer. Platelet reactivity was expressed in P2Y12 reaction units (PRU). Activation of platelets was identified with the use of flow cytometry as previously described.^17. And to determine the VASP index, a commercially available kit (Diagnostica Stago, Inc, Parsippany NJ) was used. ^17 Schneider D J, Sobel B E. Streamlining the design of promising clinical trials: in-vitro testing of antithrombotic regimens and multiple agonists of platelet activation. Coron Artery Dis. 2009; 20:175-8.
# platelets = test: Example 4: platelet activation measured by flow cytometry; settings: P-selectin expression, 1 μM ADP
# Procedure: as §1, §2, §3, §4
# [2] = test system: patients with acute coronary syndromes undergoing PCI; test: Example 2: bleeding (GUSTO, TIMI, ACUITY) and adverse events up to 48 hours
# Description: Multiple definitions of bleeding were used for full disclosure of bleeding risks associated with cangrelor: […] N Engl J Med 329:673-82 (1993); mild, moderate, or severe/life-threatening based on transfusion use and presence/absence of hemodynamic compromise); […] Investigators reported adverse and serious adverse events according to International Conference on Harmonization guidance (International Conference on Harmonization (ICH) Guidance Documents. U.S. Food and Drug Administration Web site. (Accessed on Oct. 8, 2009, at the FDA website beginning with “www.” and ending with “fda.gov/RegulatoryInformation/Guidances/ucm122049.htm”)).
# [3] = Study Day 1, 1.75 h, Ticagrelor at 0.5 hr
# [4] = Study Day 1, 1.75 h, Ticagrelor at 1.25 hr
# [5] = Study Day 1, 2.0 h, Ticagrelor at 0.5 hr
# [6] = Study Day 1, 2.0 h, Ticagrelor at 1.25 hr
# [7] = Study Day 1, reference 0.5/1.25 h, All
# [8] = Study Day 1, reference 0.5/1.25 h, Ticagrelor at 0.5 hr
# [9] = Study Day 1, reference 0.5/1.25 h, Ticagrelor at 1.25 hr
# [10] = Study Day 5, 1.0 h, Ticagrelor 6 doses
# [11] = Study Day 5, 1.0 h, Ticagrelor 7 doses
# [12] = Study Day 5, 2.0 h, Ticagrelor 6 doses
# [13] = Study Day 5, 2.0 h, Ticagrelor 7 doses
smiles,measurement,setting,value
"CSCCNc1nc(SCCC(F)(F)F)nc2c1ncn2[C@@H]1O[C@H](COP(=O)(O)OP(=O)(O)C(Cl)(Cl)P(=O)(O)O)[C@@H](O)[C@H]1O [Cangrelor, cangrelor]",VASP Index VI,"[1]; Study Day 1, 1.75 h, All",13 ± 9
same,VASP Index VI,[1]; [3],13 ± 9
same,VASP Index VI,[1]; [4],13 ± 4
same,VASP Index VI,"[1]; Study Day 1, 2.0 h, All",15 ± 9
same,VASP Index VI,[1]; [5],11 ± 7
same,VASP Index VI,[1]; [6],19 ± 7
same,VASP Index VI,[1]; [7],18 ± 10
same,VASP Index VI,[1]; [8],18 ± 13
same,VASP Index VI,[1]; [9],19 ± 8
same,VASP Index VI,"[1]; Study Day 5, 1.0 h, All",16 ± 11
same,VASP Index VI,[1]; [10],19 ± 14
same,VASP Index VI,[1]; [11],12 ± 7
same,VASP Index VI,"[1]; Study Day 5, 2.0 h, All",17 ± 5
same,VASP Index VI,[1]; [12],20 ± 3
same,VASP Index VI,[1]; [13],14 ± 6
same,Flow Cytometry IPR,"platelets; Study Day 1, 1.75 h, All",94 ± 5
same,Flow Cytometry PR,"platelets; Study Day 1, 1.75 h, All",2.5 ± 1
same,Flow Cytometry IPR,platelets; [3],96 ± 2
same,Flow Cytometry PR,platelets; [3],2 ± 0.6
same,Flow Cytometry IPR,platelets; [4],92 ± 7
same,Flow Cytometry PR,platelets; [4],3 ± 1.1
same,Flow Cytometry IPR,"platelets; Study Day 1, 2.0 h, All",89 ± 30
same,Flow Cytometry PR,"platelets; Study Day 1, 2.0 h, All",3.8 ± 4.5
same,Flow Cytometry IPR,platelets; [5],96 ± 2
same,Flow Cytometry PR,platelets; [5],2.3 ± 0.8
same,Flow Cytometry IPR,platelets; [6],83 ± 28
same,Flow Cytometry PR,platelets; [6],5.3 ± 6.3
same,Flow Cytometry IPR,platelets; [7],94 ± 4
same,Flow Cytometry PR,platelets; [7],2.8 ± 1.2
same,Flow Cytometry IPR,platelets; [8],94 ± 5
same,Flow Cytometry PR,platelets; [8],3 ± 1.7
same,Flow Cytometry IPR,platelets; [9],94 ± 3
same,Flow Cytometry PR,platelets; [9],1.5 ± 0.5
same,Flow Cytometry IPR,"platelets; Study Day 5, 1.0 h, All",92 ± 4
same,Flow Cytometry PR,"platelets; Study Day 5, 1.0 h, All",4.1 ± 2.7
same,Flow Cytometry IPR,platelets; [10],91 ± 3
same,Flow Cytometry PR,platelets; [10],3.5 ± 1.4
same,Flow Cytometry IPR,platelets; [11],93 ± 5
same,Flow Cytometry PR,platelets; [11],4.7 ± 3.6
same,Flow Cytometry IPR,"platelets; Study Day 5, 2.0 h, All",95 ± 3
same,Flow Cytometry PR,"platelets; Study Day 5, 2.0 h, All",2.8 ± 1.3
same,Flow Cytometry IPR,platelets; [12],93 ± 3
same,Flow Cytometry PR,platelets; [12],2.7 ± 1.2
same,Flow Cytometry IPR,platelets; [13],96 ± 2
same,Flow Cytometry PR,platelets; [13],2.8 ± 1.5
same,OR (95% CI): Hematoma ≧5 cm at puncture site,"[2]; 48-hour, safety population, cangrelor vs clopidogrel","1.12 (0.82, 1.53)"
same,ACUITY criteria Major bleeding,"[2]; human, in vivo, 48 h",158 (3.6) no. (%)
same,ACUITY criteria Minor bleeding,"[2]; human, in vivo, 48 h",768 (17.6) no. (%)
same,Access site bleeding requiring radiologic or surgical intervention,"[2]; human, in vivo, 48 h",6 (0.1) no. (%)
same,Any blood transfusion,"[2]; human, in vivo, 48 h",46 (1.1) no. (%)
same,Any platelet transfusion,"[2]; human, in vivo, 48 h",6 (0.1) no. (%)
same,Drop in hemoglobin and/or hematocrit,"[2]; human, in vivo, 48 h",91 (2.1) no. (%)
same,Dyspnea,"[2]; human, in vivo, 48 h",1.0%
same,Ecchymosis,"[2]; human, in vivo, 48 h",284 (6.5) no. (%)
same,Epistaxis,"[2]; human, in vivo, 48 h",9 (0.2) no. (%)
same,GUSTO criteria Mild bleeding,"[2]; human, in vivo, 48 h",858 (19.6) no. (%)
same,GUSTO criteria Moderate bleeding,"[2]; human, in vivo, 48 h",41 (0.9) no. (%)
same,GUSTO criteria Severe/life-threatening bleeding,"[2]; human, in vivo, 48 h",10 (0.2) no. (%)
same,Hematoma <5 cm at puncture site,"[2]; human, in vivo, 48 h",251 (5.7) no. (%)
same,Hematoma ≧5 cm at puncture site,"[2]; human, in vivo, 48 h",85 (1.9) no. (%)
same,Hemodynamic compromise,"[2]; human, in vivo, 48 h",9 (0.2) no. (%)
same,Intracranial hemorrhage,"[2]; human, in vivo, 48 h",1 (0.0) no. (%)
same,Intraocular,"[2]; human, in vivo, 48 h",2 (0.0) no. (%)
same,OR (95% CI): ACUITY criteria Major bleeding,"[2]; human, in vivo, 48 h","1.26 (0.99, 1.60)"
same,OR (95% CI): ACUITY criteria Minor bleeding,"[2]; human, in vivo, 48 h","1.19 (1.06, 1.33)"
same,OR (95% CI): Access site bleeding requiring radiologic or surgical intervention,"[2]; human, in vivo, 48 h","0.60 (0.22, 1.65)"
same,OR (95% CI): Any blood transfusion,"[2]; human, in vivo, 48 h","1.09 (0.72, 1.67)"
same,OR (95% CI): Any platelet transfusion,"[2]; human, in vivo, 48 h","1.20 (0.37, 3.93)"
same,OR (95% CI): Drop in hemoglobin and/or hematocrit,"[2]; human, in vivo, 48 h","1.45 (1.05, 2.01)"
same,OR (95% CI): Ecchymosis,"[2]; human, in vivo, 48 h","1.23 (1.03, 1.47)"
same,OR (95% CI): Epistaxis,"[2]; human, in vivo, 48 h","0.41 (0.19, 0.89)"
same,OR (95% CI): GUSTO criteria Mild bleeding,"[2]; human, in vivo, 48 h","1.20 (1.07, 1.34)"
same,OR (95% CI): GUSTO criteria Moderate bleeding,"[2]; human, in vivo, 48 h","1.21 (0.76, 1.90)"
same,OR (95% CI): GUSTO criteria Severe/life-threatening bleeding,"[2]; human, in vivo, 48 h","0.91 (0.39, 2.14)"
same,OR (95% CI): Hematoma <5 cm at puncture site,"[2]; human, in vivo, 48 h","1.14 (0.94, 1.37)"
same,OR (95% CI): Hemodynamic compromise,"[2]; human, in vivo, 48 h","0.82 (0.34, 1.97)"
same,OR (95% CI): Oozing at puncture site,"[2]; human, in vivo, 48 h","1.28 (1.10, 1.49)"
same,OR (95% CI): Reoperation for bleeding,"[2]; human, in vivo, 48 h","1.00 (0.06, 15.96)"
same,OR (95% CI): Retroperitoneal,"[2]; human, in vivo, 48 h","1.50 (0.67, 3.34)"
same,OR (95% CI): TIMI criteria Major bleeding,"[2]; human, in vivo, 48 h","1.36 (0.68, 2.71)"
same,OR (95% CI): TIMI criteria Minor bleeding,"[2]; human, in vivo, 48 h","1.39 (0.84, 2.30)"
same,OR (95% CI): Thrombocytopenia,"[2]; human, in vivo, 48 h","0.86 (0.29, 2.55)"
same,Oozing at puncture site,"[2]; human, in vivo, 48 h",400 (9.1) no. (%)
same,Reoperation for bleeding,"[2]; human, in vivo, 48 h",1 (0.0) no. (%)
same,Reported adverse events,"[2]; human, in vivo, 48 h",26.4%
same,Retroperitoneal,"[2]; human, in vivo, 48 h",15 (0.3) no. (%)
same,Serious adverse events,"[2]; human, in vivo, 48 h",2.7%
same,TIMI criteria Major bleeding,"[2]; human, in vivo, 48 h",19 (0.4) no. (%)
same,TIMI criteria Minor bleeding,"[2]; human, in vivo, 48 h",36 (0.8) no. (%)
same,Thrombocytopenia,"[2]; human, in vivo, 48 h",6 (0.1) no. (%)
same,discontinuation of study drug due to an adverse event,"[2]; human, in vivo, 48 h",0.5%
